ChEMBL document CHEMBL3046377, “Bioactive ellagitannins from Cunonia macrophylla, an endemic Cunoniaceae from New Caledonia” (Phytochemistry, 2005)

How the values were obtained:
[1] = Inhibition of xanthine oxidase assessed as conversion of xanthine to uric acid incubated for 3 min
[2] = test system: Corynebacterium accolens; assay: Antimicrobial activity against Corynebacterium accolens at 100 ug after 24 hr by disk diffusion method; assay type: functional; conditions: read-out: DIZ
[3] = test system: Candida albicans; assay: Antimicrobial activity against Candida albicans at 100 ug after 24 hr by disk diffusion method; assay type: functional; conditions: read-out: DIZ
[4] = test system: Staphylococcus aureus; assay: Antimicrobial activity against Staphylococcus aureus at 100 ug after 24 hr by disk diffusion method; assay type: functional; conditions: read-out: DIZ
[5] = test system: Pectobacterium carotovorum; assay: Antimicrobial activity against Pectobacterium carotovorum at 100 ug after 24 hr by disk diffusion method; assay type: functional; conditions: read-out: DIZ
[6] = test system: Candida albicans; assay: Antimicrobial activity against Candida albicans at 20 ug after 24 hr by disk diffusion method; assay type: functional, organism-based
[7] = test system: Corynebacterium accolens; assay: Antimicrobial activity against Corynebacterium accolens at 10 ug after 24 hr by disk diffusion method; assay type: functional, organism-based
[8] = test system: Pectobacterium carotovorum; assay: Antimicrobial activity against Pectobacterium carotovorum at 10 ug after 24 hr by disk diffusion method; assay type: functional, organism-based
[9] = test system: Staphylococcus aureus; assay: Antimicrobial activity against Staphylococcus aureus at 10 ug after 24 hr by disk diffusion method; assay type: functional, organism-based

Compound	IC50 [1] [µM]	zone of inhibition at 100 µg/disc [2] [mm]	zone of inhibition at 100 µg/disc [3] [mm]	zone of inhibition at 100 µg/disc [4] [mm]	zone of inhibition at 100 µg/disc [5] [mm]	inhibition zone (IZ) [6] [mm]	inhibition zone (IZ) [7] [mm]	inhibition zone (IZ) [8] [mm]	inhibition zone (IZ) [9] [mm]
O=C(O[C@@H]1O[C@@H]2COC(=O)c3cc(O)c(O)c(O)c3-c3c(cc(O)c(O)c3O)C(=O)O[C@H]([C@H]1O)[C@@H]2O)c1cc(O)c(O)c(O)c1 [CORILAGIN]	> 100	12	12	12	20				
NYSTATIN						11			
O=c1oc2c(O)c(O)cc3c(=O)oc4c(O)c(O)cc1c4c23 [ELLAGIC ACID]	9.3	12	10	0	15				
O=C(O)c1cc(O)c(O)c(O)c1 [GALLIC ACID]	41.7	7	7	7	13				
GENTAMICIN SULFATE							28	21	14
O=C(O[C@@H]1O[C@@H]2COC(=O)c3cc(O)c(O)c(O)c3-c3c(cc(Oc4c(C(=O)O)cc(O)c(O)c4O)c(O)c3O)C(=O)O[C@H]([C@H]1O)[C@@H]2O)c1cc(O)c(O)c(O)c1 [MALLOTINIC ACID]	> 100	9	9	9	13				
O=C(Oc1c(O)cc2c(c1O)-c1c(cc(O)c(O)c1O)C(=O)OC[C@H]1O[C@@H](OC(=O)c3cc(O)c(O)c(O)c3)[C@H](O)[C@@H](OC2=O)[C@@H]1O)c1cc(O)c(O)c(O)c1 [MALLOREPANIN]	> 100	10	10	10	15				
O=C(O)C[C@@H]1C(=O)O[C@H]2[C@@H]3OC(=O)c4cc(O)c(O)c(O)c4-c4c(cc(O)c(O)c4O)C(=O)OC[C@H]2O[C@@H](OC(=O)c2cc(O)c(O)c(O)c2)[C@@H]3OC(=O)c2cc(O)c(O)c3c2[C@H]1[C@H](O)C(=O)O3 [CHEBULAGIC ACID]	48	10	12	11	19				
O=c1oc2c(O)c(O[C@@H]3OC[C@@H](O)[C@H](O)[C@H]3O)cc3c(=O)oc4c(O)c(O)cc1c4c23 [ELLAGIC ACID 4-O-XYLOPYRANOSIDE]	4.7	0	0	0	12				
O=c1c(O)c(-c2ccc(O)c(O)c2)oc2cc(O)cc(O)c12 [QUERCETIN]	10								
